Patent US20230059404A1, “Method for Producing Brown Adipocytes” (Kataoka Corporation, priority 2019, published 2023)

How the values were obtained:
human fibroblasts = experiment: Direct conversion of human fibroblasts to brown adipocytes in serum-free medium SFBAM, efficiency judged comprehensively; type: cell-based; conditions: conclusion from removal experiments
Description: The above human fibroblasts were seeded in 35 mm dishes coated with gelatin (Cat #: 190-15805, manufactured by FUJIFILM Wako Pure Chemical Co.) at 5×10^4, and cultured in DMEM medium (Cat #: 11965092; manufactured by Gibco) supplemented with 10% fetal bovine serum (FBS), 100 U/mL penicillin, 100 μg/mL streptomycin until 80% to 90% confluency at 37° C., 5% CO2.
Hereinafter, this is referred to as serum-free brown adipocyte-inducing medium “SFBAM”.
After the human fibroblasts reached 80% to 90% confluency, the dish medium was replaced with the above SFBAM and the human fibroblasts were cultured in SFBAM for 3 weeks. The medium was changed every 3 days.
The more the number of + marks, the higher the conversion efficiency. […] The mark − indicates no conversion to brown adipocytes.

[1] = tested on: β-adrenergic receptor signal pathway in brown adipocytes; experiment: Heat production capacity: Ucp1 mRNA after isoproterenol treatment of induced brown adipocytes; type: cell-based, human; conditions: 6 hours treatment of cells induced with Example 3 (3 weeks SFBAM + 1 week SFBAMaM); compared with control treated with H2O; FIG. 9
Description: To quantify gene expression, total RNAs were extracted from fibroblasts treated with the respective compounds using FastGene (registered trademark) RNA basic kit (manufactured by Nippon Genetics Co., Ltd.). Fibroblasts were cultured in parallel using SFBAM as a control, and the total RNAs were extracted from the brown adipocytes induced with compounds and the control cells. After performing reverse-transcription with ReverTraAce (registered trademark) PCR RT Master Mix with gDNA Remover (manufactured by Toyobo Co., Ltd.), the real-time PCR analysis was performed by Power SYBR Green PCR Master Mix (Thermo Fisher Scientific). Three reactions were carried out per level under the following conditions: 40 cycles of reactions at 95° C. for 10 minutes, at 95° C. for 15 seconds, and at 60° C. for 60 seconds, in order. All results were normalized to the quantity of Tbp mRNA.
Regarding the cells, Ucp1 mRNA was quantified in the case after treatment with isoproterenol (β-adrenergic receptor agonist) for 6 hours and in the case after treatment with H2O, which is the solvent.

SMILES	conversion efficiency attributed to the single compound (human fibroblasts)	Ucp1 mRNA increase after treatment [1]
C=C[C@@]1(C)CC(=O)[C@]2(O)[C@@]3(C)[C@@H](O)CCC(C)(C)[C@@H]3[C@H](O)[C@H](OC(C)=O)[C@@]2(C)O1 [forskolin, Forskolin]	followed by a high conversion efficiency	
CC(C)NCC(O)c1ccc(O)c(O)c1 (stereo not drawn) [isoproterenol, Isoproterenol]		up to 3.1 fold
CN(CCOc1ccc(CC2SC(=O)NC2=O)cc1)c1ccccn1 (stereo not drawn) [rosiglitazone, Rosiglitazone]	high conversion efficiency	
